According to US9034359B2, “Composition comprising biodegradable hydrating ceramics for controlled drug delivery” (Lidds AB, priority 2003, dated 2015):

Assay: Dog study: plasma concentration of 2-hydroxyflutamide after implant in prostate tissue
Assay type: in vivo
Conditions: 30, 60 or 120 mg in calcium sulphate-water implant in prostate tissue
Protocol: Composition according to example 1, composition 2, with three different 2-hydroxyflutamide (HT) concentrations, was tested in a dog study. The concentration profile of HT in prostate tissue in male dogs after local administration of the composition was investigated at different time points. Also a reference implant without HT was implanted in one dog.
Three male dogs are given 30, 60 or 120 mg of 2-hydroxy-flutamide by local implant delivery system in the prostate tissue; the total implantation time was 3 weeks.
The implant drug delivery system was inserted locally into the prostate tissue through sterile needles during rectal ultrasound guidance. The animals were under anesthesia during the insertion procedure.
Blood samples were taken every day for the first week and then once a week for the remaining weeks. Plasma samples were collected in tubes with EDTA and the plasma were transferred to microtubes of 2 ml, (sterile kryotubes from Sarstedt; No. 694.005).
The quantification of the parent drug, 2-hydroxyflutamide, in the plasma and tissue samples, was done by HPLC-MS analysis.

extended plasma profile duration: 3 to 6 days
Compound: CC(C)(O)C(=O)Nc1ccc([N+](=O)[O-])c(C(F)(F)F)c1 [2-hydroxyflutamide]
